Data as given in patent publication US20230073777A1, “CYCLIC-AMP RESPONSE ELEMENT BINDING PROTEIN (CBP) AND/OR ADENOVIRAL E1A BINDING PROTEIN OF 300 KDA (P300) DEGRADATION COMPOUNDS AND METHODS OF USE” (CULLGEN (SHANGHAI), INC., priority 2019, published 2023).
pIC50: −log10 of the molar value.

Assays:
LNCaP cells = assay: LNCaP cell viability assay (CellTiter-Glo); assay type: cell-based; conditions: for pIC50: Homo sapiens, 72 h, LNCaP prostate cancer cell viability inhibition, 3 days, CellTiter-Glo (Table 2)
Procedure: LNCaP cells seeded in 96-well plates were treated with 10 μM GNE-781 or selected bivalent compounds, i.e. P-001, P-002, and P-019, following a 12-point 3-fold serial dilution. Three days after treatment, cell viability was determined using the CellTiter-Glo kit (Promega) following manufacturer's instructions. Cell viability was normalized to the mean values of 3 replicates of untreated cells. Dose-dependent response was analyzed following the least-squares non-linear regression method using the GraphPad Prism 5.0 software.
LNCaP cells were treated with GNE-781 or selected bivalent compounds for 3 days at indicated concentrations following a 3-fold serial dilution.
Cells were seeded at a density of 5000 cells per well in 96-well assay plates and treated with test compounds following a 12-point 3-fold serial dilution. Three days later, cell viability was determined using the CellTiter-Glo assay kit according to the manufacturer's instructions. The dose-response curves were determined and IC50 values were calculated using the GraphPad Prism software following a nonlinear regression (least squares fit) method.

P300 = P300 (Homo sapiens, UniProt Q09472); assay: Immunoblotting of P300 protein levels in LNCaP or 22RV1 cells; assay type: cell-based; design: LNCaP or 22RV1 cells that express CBP/P300 proteins were treated with GNE-781 or the bivalent compounds; endogenous in cells; host or cells: LNCaP (clone FGC) or 22RV1 cells; conditions: percentage of inhibition of p300 at 10 nM (Table 2); read-out: Degradation (10 nM)
Procedure: Specific exemplary bivalent compounds were characterized in LNCaP or 22RV1 cells. LNCaP or 22RV1 cells that express CBP/P300 proteins were treated with GNE-781 or the bivalent compounds disclosed herein (P-001 to P-174) for indicated hours. Cells were collected, lysed and subject to immunoblotting using an antibody specific to P300 or CBP proteins. Tubulin or vinculin was included as the loading control. DMSO was used as the negative control.
Cultured cells or tissue chunks were washed with cold PBS once and lysed in cold RIPA buffer supplemented with protease inhibitors and phosphatase inhibitors (Beyotime Biotechnology). The solutions were then incubated at 4° C. for 30 minutes with gentle agitation to fully lyse cells. Cell lysates were centrifuged at 13,000 rpm for 10 minutes at 4° C. and pellets were discarded. Total protein concentrations in the lysates were determined by BCA assays (Beyotime Biotechnology). Cell lysates were mixed with Laemmli loading buffer to 1× and heated at 99° C. for 5 min. Proteins were resolved on SDS-PAGE and visualized by chemiluminescence. Images were taken by a ChemiDoc MP Imaging system (Bio-Rad). Protein bands were quantitated using the accompanied software provided by Bio-Rad.

Chain of P300 (Q09472 whole entry): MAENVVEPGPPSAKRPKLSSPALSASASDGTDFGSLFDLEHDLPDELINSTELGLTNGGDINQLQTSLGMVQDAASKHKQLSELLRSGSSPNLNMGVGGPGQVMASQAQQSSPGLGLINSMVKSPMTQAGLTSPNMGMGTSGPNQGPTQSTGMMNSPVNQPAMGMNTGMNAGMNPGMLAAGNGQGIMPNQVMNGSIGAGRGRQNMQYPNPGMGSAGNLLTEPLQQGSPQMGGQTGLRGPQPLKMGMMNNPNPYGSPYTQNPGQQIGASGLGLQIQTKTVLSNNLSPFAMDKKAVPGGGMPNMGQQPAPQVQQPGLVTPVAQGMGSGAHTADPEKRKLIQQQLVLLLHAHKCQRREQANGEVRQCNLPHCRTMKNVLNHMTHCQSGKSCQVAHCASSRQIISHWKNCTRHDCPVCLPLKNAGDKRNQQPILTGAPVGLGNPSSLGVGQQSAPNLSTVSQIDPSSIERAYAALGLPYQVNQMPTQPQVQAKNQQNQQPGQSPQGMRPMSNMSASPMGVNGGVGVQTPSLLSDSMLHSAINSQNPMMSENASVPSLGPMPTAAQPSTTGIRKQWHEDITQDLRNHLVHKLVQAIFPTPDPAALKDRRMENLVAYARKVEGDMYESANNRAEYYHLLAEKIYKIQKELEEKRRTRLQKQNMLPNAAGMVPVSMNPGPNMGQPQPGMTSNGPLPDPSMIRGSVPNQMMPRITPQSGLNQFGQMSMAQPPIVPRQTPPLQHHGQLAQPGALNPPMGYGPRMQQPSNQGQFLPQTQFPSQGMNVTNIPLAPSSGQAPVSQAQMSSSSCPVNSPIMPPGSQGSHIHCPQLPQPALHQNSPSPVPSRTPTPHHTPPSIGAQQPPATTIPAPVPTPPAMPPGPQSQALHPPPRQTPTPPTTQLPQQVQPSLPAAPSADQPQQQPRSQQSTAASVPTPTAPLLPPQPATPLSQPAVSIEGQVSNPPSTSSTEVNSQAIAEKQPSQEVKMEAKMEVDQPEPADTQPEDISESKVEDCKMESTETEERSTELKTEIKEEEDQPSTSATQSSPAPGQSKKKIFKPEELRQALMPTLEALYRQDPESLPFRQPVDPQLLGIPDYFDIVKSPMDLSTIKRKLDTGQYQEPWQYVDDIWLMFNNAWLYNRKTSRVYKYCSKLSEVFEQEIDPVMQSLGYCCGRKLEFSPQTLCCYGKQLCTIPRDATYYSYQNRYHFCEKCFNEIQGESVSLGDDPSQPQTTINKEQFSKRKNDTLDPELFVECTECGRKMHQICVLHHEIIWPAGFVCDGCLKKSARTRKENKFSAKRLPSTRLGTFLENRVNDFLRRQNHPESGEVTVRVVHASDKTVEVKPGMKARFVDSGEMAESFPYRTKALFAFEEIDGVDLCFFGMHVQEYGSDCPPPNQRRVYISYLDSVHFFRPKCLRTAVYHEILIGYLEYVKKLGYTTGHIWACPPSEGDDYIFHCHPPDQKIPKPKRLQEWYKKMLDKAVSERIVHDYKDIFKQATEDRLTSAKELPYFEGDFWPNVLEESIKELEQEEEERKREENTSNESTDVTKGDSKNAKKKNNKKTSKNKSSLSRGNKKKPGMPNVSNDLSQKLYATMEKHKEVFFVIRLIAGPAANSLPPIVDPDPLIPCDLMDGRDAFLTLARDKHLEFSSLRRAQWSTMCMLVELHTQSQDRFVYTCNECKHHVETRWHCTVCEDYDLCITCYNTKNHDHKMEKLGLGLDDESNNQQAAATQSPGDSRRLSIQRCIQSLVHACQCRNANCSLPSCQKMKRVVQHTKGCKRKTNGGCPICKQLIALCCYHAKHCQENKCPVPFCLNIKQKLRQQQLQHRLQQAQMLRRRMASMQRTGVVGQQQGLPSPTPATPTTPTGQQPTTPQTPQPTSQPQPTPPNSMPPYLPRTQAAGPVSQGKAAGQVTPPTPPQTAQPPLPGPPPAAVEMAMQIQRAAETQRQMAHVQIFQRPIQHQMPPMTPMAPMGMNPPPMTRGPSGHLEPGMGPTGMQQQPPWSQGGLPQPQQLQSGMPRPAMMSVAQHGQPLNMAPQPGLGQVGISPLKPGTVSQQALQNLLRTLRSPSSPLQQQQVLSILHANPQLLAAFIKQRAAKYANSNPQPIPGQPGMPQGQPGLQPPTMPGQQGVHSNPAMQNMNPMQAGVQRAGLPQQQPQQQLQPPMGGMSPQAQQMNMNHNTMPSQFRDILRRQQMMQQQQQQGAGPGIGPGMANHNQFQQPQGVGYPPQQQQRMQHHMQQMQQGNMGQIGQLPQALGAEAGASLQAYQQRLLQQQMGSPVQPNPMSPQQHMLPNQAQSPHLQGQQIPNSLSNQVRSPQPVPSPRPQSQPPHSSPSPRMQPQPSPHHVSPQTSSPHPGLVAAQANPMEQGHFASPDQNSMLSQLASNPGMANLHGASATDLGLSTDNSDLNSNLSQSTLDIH

Structure (SMILES) | pIC50 (LNCaP cells) | inhibition at 0.01 µM (P300) [%] | viability of LNCaP cells (LNCaP cells; from 10 μM, 12-point 3-fold serial dilution, 3 days (FIG. 4))
CNC(=O)N1CCc2c(c(N3CCCc4cc(-c5cnn(C)c5)c(C(F)F)cc43)nn2C2CCN(C(=O)CCOCCOCCOCCNc3ccc4c(c3)C(=O)N(C3CCC(=O)NC3=O)C4=O)CC2)C1 (stereo not shown) [P-010, 3-(7-(Difluoromethyl)-6-(1-methyl-1H-pyrazol-4-yl)-3,4-dihydroquinolin-1(2H)-yl)-1-(1-(3-(2-(2-(2-((2-(2,6-dioxopiperidin-3-yl)-1,3-dioxoisoindolin-5-yl)amino)ethoxy)ethoxy)ethoxy)propanoyl)piperidin-4-yl)-N-methyl-1,4,6,7-tetrahydro-5H-pyrazolo[4,3-c]pyridine-5-carboxamide] | 6.82 | 20 to 50 | –
CNC(=O)N1CCc2c(c(N3CCCc4cc(-c5cnn(C)c5)c(C(F)F)cc43)nn2C2CCN(C(=O)CCOCCOCCOCCOCCNc3ccc4c(c3)C(=O)N(C3CCC(=O)NC3=O)C4=O)CC2)C1 (stereo not shown) [P-011, 3-(7-(Difluoromethyl)-6-(1-methyl-1H-pyrazol-4-yl)-3,4-dihydroquinolin-1(2H)-yl)-1-(1-(1-((2-(2,6-dioxopiperidin-3-yl)-1,3-dioxoisoindolin-5-yl)amino)-3,6,9,12-tetraoxapentadecan-15-oyl)piperidin-4-yl)-N-methyl-1,4,6,7-tetrahydro-5H-pyrazolo[4,3-c]pyridine-5-carboxamide] | 6.79 | 20 to 50 | –
CNC(=O)N1CCc2c(c(N3CCCc4cc(-c5cnn(C)c5)c(C(F)F)cc43)nn2C2CCN(C(=O)CCOCCOCCOCCOCCOCCNc3ccc4c(c3)C(=O)N(C3CCC(=O)NC3=O)C4=O)CC2)C1 (stereo not shown) [P-012, 3-(7-(Difluoromethyl)-6-(1-methyl-1H-pyrazol-4-yl)-3,4-dihydroquinolin-1(2H)-yl)-1-(1-(1-((2-(2,6-dioxopiperidin-3-yl)-1,3-dioxoisoindolin-5-yl)amino)-3,6,9,12,15-pentaoxaoctadecan-18-oyl)piperidin-4-yl)-N-methyl-1,4,6,7-tetrahydro-5H-pyrazolo[4,3-c]pyridine-5-carboxamide] | 6.70 | < 20 | –
CNC(=O)N1CCc2c(c(N3CCCc4cc(-c5cnn(C)c5)c(C(F)F)cc43)nn2C2CCN(C(=O)CCNc3cccc4c3C(=O)N(C3CCC(=O)NC3=O)C4=O)CC2)C1 (stereo not shown) [P-014, 3-(7-(Difluoromethyl)-6-(1-methyl-1H-pyrazol-4-yl)-3,4-dihydroquinolin-1(2H)-yl)-1-(1-(3-((2-(2,6-dioxopiperidin-3-yl)-1,3-dioxoisoindolin-4-yl)amino)propanoyl)piperidin-4-yl)-N-methyl-1,4,6,7-tetrahydro-5H-pyrazolo[4,3-c]pyridine-5-carboxamide] | < 5.00 | < 20 | –
CNC(=O)N1CCc2c(c(N3CCCc4cc(-c5cnn(CC(=O)NCCCNc6ccc7c(c6)C(=O)N(C6CCC(=O)NC6=O)C7=O)c5)c(C(F)F)cc43)nn2C2CCOCC2)C1 (stereo not shown) [P-017, 3-(7-(Difluoromethyl)-6-(1-(2-((3-((2-(2,6-dioxopiperidin-3-yl)-1,3-dioxoisoindolin-5-yl)amino)propyl)amino)-2-oxoethyl)-1H-pyrazol-4-yl)-3,4-dihydroquinolin-1(2H)-yl)-N-methyl-1-(tetrahydro-2H-pyran-4-yl)-1,4,6,7-tetrahydro-5H-pyrazolo[4,3-c]pyridine-5-carboxamide] | 7.00 | < 20 | –
CNC(=O)N1CCc2c(c(N3CCCc4cc(-c5cnn(CC(=O)NCCCCCNc6ccc7c(c6)C(=O)N(C6CCC(=O)NC6=O)C7=O)c5)c(C(F)F)cc43)nn2C2CCOCC2)C1 (stereo not shown) [P-019] | 7.83 | 50 to 80 | dose-dependently suppressed viability
CNC(=O)N1CCc2c(c(N3CCCc4cc(-c5cnn(CC(=O)NCCOCCNc6cccc7c6C(=O)N(C6CCC(=O)NC6=O)C7=O)c5)c(C(F)F)cc43)nn2C2CCOCC2)C1 (stereo not shown) [P-021] | 6.56 | < 20 | –
CNC(=O)N1CCc2c(c(N3CCCc4cc(-c5cnn(CC(=O)NCCOCCOCCOCCNc6cccc7c6C(=O)N(C6CCC(=O)NC6=O)C7=O)c5)c(C(F)F)cc43)nn2C2CCOCC2)C1 (stereo not shown) [P-023, 3-(7-(Difluoromethyl)-6-(1-(14-((2-(2,6-dioxopiperidin-3-yl)-1,3-dioxoisoindolin-4-yl)amino)-2-oxo-6,9,12-trioxa-3-azatetradecyl)-1H-pyrazol-4-yl)-3,4-dihydroquinolin-1(2H)-yl)-N-methyl-1-(tetrahydro-2H-pyran-4-yl)-1,4,6,7-tetrahydro-5H-pyrazolo[4,3-c]pyridine-5-carboxamide] | 6.45 | < 20 | –
CNC(=O)N1CCc2c(c(N3CCCc4cc(-c5cnn(CC(=O)NCCOCCOCCOCCOCCNc6cccc7c6C(=O)N(C6CCC(=O)NC6=O)C7=O)c5)c(C(F)F)cc43)nn2C2CCOCC2)C1 (stereo not shown) [P-024, 3-(7-(Difluoromethyl)-6-(1-(17-((2-(2,6-dioxopiperidin-3-yl)-1,3-dioxoisoindolin-4-yl)amino)-2-oxo-6,9,12,15-tetraoxa-3-azaheptadecyl)-1H-pyrazol-4-yl)-3,4-dihydroquinolin-1(2H)-yl)-N-methyl-1-(tetrahydro-2H-pyran-4-yl)-1,4,6,7-tetrahydro-5H-pyrazolo[4,3-c]pyridine-5-carboxamide] | 6.28 | < 20 | –
CNC(=O)N1CCc2c(c(N3CCCc4cc(-c5cnn(CC(=O)NCCOCCOCCOCCOCCOCCNc6cccc7c6C(=O)N(C6CCC(=O)NC6=O)C7=O)c5)c(C(F)F)cc43)nn2C2CCOCC2)C1 (stereo not shown) [P-025, 3-(7-(Difluoromethyl)-6-(1-(20-((2-(2,6-dioxopiperidin-3-yl)-1,3-dioxoisoindolin-4-yl)amino)-2-oxo-6,9,12,15,18-pentaoxa-3-azaicosyl)-1H-pyrazol-4-yl)-3,4-dihydroquinolin-1(2H)-yl)-N-methyl-1-(tetrahydro-2H-pyran-4-yl)-1,4,6,7-tetrahydro-5H-pyrazolo[4,3-c]pyridine-5-carboxamide] | 5.90 | < 20 | –

Second part, led by results:

pIC50 (LNCaP cells) | inhibition at 0.01 µM (P300) [%] | Structure (SMILES) | viability of LNCaP cells (LNCaP cells; from 10 μM, 12-point 3-fold serial dilution, 3 days (FIG. 4))
8.14 | > 80 | CNC(=O)N1CCc2c(c(N3CCCc4cc(-c5cnn(C)c5)c(C(F)F)cc43)nn2C2CCN(C(=O)CCCNc3cccc4c3C(=O)N(C3CCC(=O)NC3=O)C4=O)CC2)C1 (stereo not shown) [P-015, 3-(7-(difluoromethyl)-6-(1-methyl-1H-pyrazol-4-yl)-3,4-dihydroquinolin-1(2H)-yl)-1-(1-(4-((2-(2,6-dioxopiperidin-3-yl)-1,3-dioxoisoindolin-4-yl)amino)butanoyl)piperidin-4-yl)-N-methyl-1,4,6,7-tetrahydro-5H-pyrazolo[4,3-c]pyridine-5-carboxamide] | –
5.52 | < 20 | CNC(=O)N1CCc2c(c(N3CCCc4cc(-c5cnn(CC(=O)NCCNc6ccc7c(c6)C(=O)N(C6CCC(=O)NC6=O)C7=O)c5)c(C(F)F)cc43)nn2C2CCOCC2)C1 (stereo not shown) [P-016, 3-(7-(Difluoromethyl)-6-(1-(2-((2-((2-(2,6-dioxopiperidin-3-yl)-1,3-dioxoisoindolin-5-yl)amino)ethyl)amino)-2-oxoethyl)-1H-pyrazol-4-yl)-3,4-dihydroquinolin-1(2H)-yl)-N-methyl-1-(tetrahydro-2H-pyran-4-yl)-1,4,6,7-tetrahydro-5H-pyrazolo[4,3-c]pyridine-5-carboxamide] | –
7.23 | 20 to 50 | CNC(=O)N1CCc2c(c(N3CCCc4cc(-c5cnn(CC(=O)NCCCCNc6ccc7c(c6)C(=O)N(C6CCC(=O)NC6=O)C7=O)c5)c(C(F)F)cc43)nn2C2CCOCC2)C1 (stereo not shown) [P-018] | –
8.48 | > 80 | CNC(=O)N1CCc2c(c(N3CCCc4cc(-c5cnn(CC(=O)NCCCCCCNc6ccc7c(c6)C(=O)N(C6CCC(=O)NC6=O)C7=O)c5)c(C(F)F)cc43)nn2C2CCOCC2)C1 (stereo not shown) [P-020] | –
6.41 | < 20 | CNC(=O)N1CCc2c(c(N3CCCc4cc(-c5cnn(CC(=O)NCCOCCOCCNc6cccc7c6C(=O)N(C6CCC(=O)NC6=O)C7=O)c5)c(C(F)F)cc43)nn2C2CCOCC2)C1 (stereo not shown) [P-022, 3-(7-(Difluoromethyl)-6-(1-(2-((2-(2-(2-((2-(2,6-dioxopiperidin-3-yl)-1,3-dioxoisoindolin-4-yl)amino)ethoxy)ethoxy)ethyl)amino)-2-oxoethyl)-1H-pyrazol-4-yl)-3,4-dihydroquinolin-1(2H)-yl)-N-methyl-1-(tetrahydro-2H-pyran-4-yl)-1,4,6,7-tetrahydro-5H-pyrazolo[4,3-c]pyridine-5-carboxamide] | –
